System: H4
Assay: Toxicity in human H4 cells at 10 uM
Assay type: cell-based
Conditions: h4, 10 µM

## COc1cc(OC)c(C=C2C(O)=Nc3ccccc32)c(OC)c1 [IC261]
  Activity: 40 µM

From ChEMBL document CHEMBL1157898 (Bioorg Med Chem Lett, 2010)
